By IC50 is commonly meant the concentration that inhibits the measured activity by half. For orientation: melting point means the temperature of the solid-liquid transition.

Molecules are shown by their SMILES. Where two headings read alike, the source gives them in different places. Some results are limits rather than exact numbers.

Consider seven molecules from PMC6255377, “New 1-Aryl-3-Substituted Propanol Derivatives as Antimalarial Agents” (Molecules, 2009).

Series [1] has as its system P. falciparum 3D7 strain, chloroquine sensitive. Kind of series: In vitro antimalarial activity screening (SYBR Green I micromethod). Type of series: cell-based. Particulars: Plasmodium falciparum, read-out: P. falciparum 3D7 IC50. As to the method: The SYBR^©GreenI-based micromethod was followed for testing the antimalarial activity of the compounds. Erythrocytic stages of P. falciparum 3D7 strain, chloroquine sensitive, were maintained in RPMI 1640 culture medium supplemented with 0.5% Albumax II at 37 °C in an atmosphere with 5% CO2. […] Next, stock solutions of each compound were prepared in DMSO and diluted in RPMI medium in order to obtain concentrations from 10 to 0.01 µg/mL. […] All compounds and controls were placed in triplicate. The plate was incubated under the same conditions. After 48 h, the plate was removed from the incubator and frozen for at least 1 h at -70 °C and then thawed. Finally, 100 µL of SYBR^©GreenI in lysis buffer (0.2 µL/mL) was added per well and shaken for 5 minutes or until no precipitated erythrocytes were observed. The plate was left to stand in the dark for 1 h at room temperature. Fluorescence intensity (FI) for each well was measured. The background of the nonparasitized erythrocytes was subtracted from each well tested.

The subject of a further series is P. berghei ANKA strain. The class given is in vivo. Conditions: for appearance / toxicity in treated mice: in vivo; for GIP of P. bergei (growth inhibition percentage): 10 mg/kg/day, positive control. As to the method: The in vivo antimalarial activity of the compounds was measured by the classical 4-day suppressive test. Briefly, on day 0, groups of five NMRI male mice, weighing 20 ± 2 g each, were inoculated with 2 × 10^7 red blood cells RBCs infected by erythrocytic stages of rodent malaria parasite P. berghei ANKA strain. Two hours later, each group of mice was treated intraperitoneally with a dose of 50 mg/kg of the selected compound, previously prepared in DMSO. Treatment was continued from day 1 to day 3, always at similar times. On day 4, Giemsa-stained thin blood smears from the tail of the mice were prepared and microscopically examined with 1,000× magnification. The mean of the parasitemia of each group was calculated in a total of 1,000 RBCs, and the growth inhibition percentage of parasite was estimated in relation to the control group, which received only the solvent of the products. % inhibition = [(Par control – Par comp)/(Par control)] × 100

For another series, the system named is Murine J774 macrophages. Kind of series: Nonspecific cytotoxicity test (MTT). The class given is cell-based. Particulars: 10 µg/mL, 24 h exposure. Here is the method: Murine J774 macrophages were maintained in RPMI 1640 medium supplemented with 10% FBS at 37 °C in a 5% CO2 atmosphere. First, in a flat bottom 96-well microplate, 100 µL of macrophage suspension in RPMI medium, containing 5 × 10^4 cells, were distributed per well. The cells were allowed to attach for 24 h at 37 °C. Next, the medium was replaced by different concentrations of the compounds in 200 µL of medium, or DMSO at the same concentration as growth control, and the cells were exposed to the compounds solutions for another 24 h. Each concentration was assayed three times. Afterwards, the medium was eliminated and 100 µL/well of 3-(4,5-dimethythiazol-2-yl)-2,5-diphenyltetrazolium bromide (MTT) solution, 0.4 mg/mL in PBS, was added and the plates were returned to incubator for 1 h. The suspension was removed and the toxic effect of the compounds was assessed by the reduction of MTT to formazan crystals (as a cell viability indicator); said crystals were solubilized by adding 100 µL of DMSO. Finally, the optical density (OD) was measured at 595 nm and the toxicity percentage was calculated as follows:% toxicity = [(O.D.control - O.D.comp)/(O.D.control)] × 100

The test system of series [2] is ferriprotoporphyrin IX biomineralization. Set-up: method as in PMID 12128052. Conditions: read-out: IC50 in the FBIT test; cited from earlier work.
Setting [3] is: 3D7, Table 1, 48 h incubation, mean of two experiments in triplicate.

In the case of `Cc1ccc2cccc(N3CCN(CCC(O)c4csc5ccc(F)cc45)CC3)c2n1` (stereo not shown) [Compound 23], in series [1] (setting [3]), the IC50 turned out to be 380 nM. Also, the “appearance / toxicity in treated mice” value with P. berghei ANKA strain was “looked unhealthy and showed clear evidence of weight loss”.

For the molecule `O=[N+]([O-])c1ccc(N2CCC(NCCC(O)c3csc4ccccc34)CC2)c(C(F)(F)F)c1` (stereo not shown) [Compound 31, 1-(Benzo[b]thiophen-3-yl)-3-[1-(4-nitro-2-trifluoromethylphenyl)piperidin-4-ylamino]propan-1-ol], the IC50 in series [1] (setting [3]) is 190 nM. For the same molecule, the “cytotoxicity on murine macrophages J774” value in the series with Murine J774 macrophages is “showed toxicity”. Moreover, the “GIP of P. bergei at 50 mg/kg/day (growth inhibition percentage)” value with P. berghei ANKA strain (50 mg/kg/day intraperitoneally, four-day treatment, NMRI male mice) is “Toxic”. The “appearance / toxicity in treated mice” value in the series on P. berghei ANKA strain (male, NMRI, mouse, 4 days) is “cytotoxicity of compound 31 was confirmed in the in vivo test”.

Turning to `C=C[C@H]1C[N@@]2CC[C@H]1C[C@H]2[C@H](O)c1ccnc2ccc(OC)cc12` [quinine], the IC50 in series [2] was 324000 nM.

Consider `COc1ccccc1N1CCN(CCC(O)c2csc3ccc(F)cc23)CC1` (stereo not shown) [Compound 15], for which the IC50 in series [1] (setting [3]) is 330 nM. Also, the “appearance / toxicity in treated mice” value with P. berghei ANKA strain was “looked unhealthy and showed clear evidence of weight loss”.

Turning to `CCN(CC)CCCC(C)Nc1ccnc2cc(Cl)ccc12` (stereo not shown) [Chloroq., Chloroquine, reference compound], in series [1] (3D7, 48 h), the IC50 turned out to be 80 nM. Moreover, the “GIP of P. bergei (growth inhibition percentage)” value in the series with P. berghei ANKA strain (four-day treatment, NMRI male mice) is 100% at 10 mg/kg; in the series with P. berghei ANKA strain (four-day treatment, NMRI male mice, listed as chloroquine), “GIP = Growth inhibition percentage of the rodent malaria parasite after a four-day treatment. 10 mg/kg/day of chloroquine, positive control, inhibited 100% the growth parasite. ^a Toxic = death of more than half of the animals in the tested group”.

As to `OC(CCN1CCN(c2cccc3ccccc23)CC1)c1csc2ccc(F)cc12` (stereo not shown) [Compound 12], the IC50 in series [1] (setting [3]) is 160 nM. Also, the “appearance / toxicity in treated mice” value with P. berghei ANKA strain is reported as “the appearance of the mice was good”.

For `O=C(CCN1CCN(c2ccc([N+](=O)[O-])cc2C(F)(F)F)CC1)c1csc2ccccc12` [Compound 6, 1-(Benzo[b]thiophen-3-yl)-3-[4-(4-nitro-2-trifluoromethylphenyl)piperazin-1-yl]propan-1-ona], the melting point fell in the range of 140 to 141 °C. Further, the IC50 in series [1] (setting [3]) was more than 20000 nM.
